Molecules are shown by their SMILES. Some results are limits rather than exact numbers.

Drawing on US20240425500A1 (priority 2021, published 2024), this text covers inhibition and pest or weed control for 28 compounds.

The subject of one experiment is Pythium ultimum. As to the kind of experiment: Pythium ultimum / liquid culture (seedling damping off). The settings on record: Globisporangium ultimum, liquid culture in PDB, 24 °C, 2-3 days after application, read-out: control of Pythium ultimum (inhibition of growth, photometric) compared to untreated control. In kind it is cell-based. The method, then:
Pythium ultimum/Liquid Culture (Seedling Damping Off):
Mycelia fragments and oospores of a newly grown liquid culture of the fungus are directly mixed into nutrient broth (PDB potato dextrose broth). After placing a (DMSO) solution of test compound into a microtiter plate (96-well format), the nutrient broth containing the fungal mycelia/spore mixture is added. The test plates are incubated at 24° C. and the inhibition of growth is determined photometrically 2-3 days after application.

In another experiment the test system is Phytophthora infestans. Kind of experiment: whole plant or invertebrate. The class given is in vivo. The settings on record: in Solanum lycopersicum, foliar, read-out: control of Phytophthora infestans compared to untreated control.

For orientation: inhibition means the change of the read-out against control, counted positive when it falls. Consider `COCCOc1cc(N(C)C(=O)c2ccc3ncc(-c4ccc(NC(=O)OC)nc4)n3c2)ccc1F` [Compound 77, methyl N-[5-[6-[[4-fluoro-3-(2-methoxyethoxy)phenyl]-methyl-carbamoyl]imidazo[1,2-a]pyridin-3-yl]-2-pyridyl]carbamate], for which, in the experiment with Pythium ultimum, the inhibition at 20 ppm was at least 80%. In addition, in the experiment on Phytophthora infestans, the pest or weed control at 200 ppm is at least 80%.

Consider `CNC(=O)Nc1ccc(-c2cnc3ccc(C(=O)N(C)c4ccc(F)c(OC)c4)cn23)cn1` [Compound 81, N-(4-fluoro-3-methoxy-phenyl)-N-methyl-3-[6-(methylcarbamoyl-amino)-3-pyridyl]imidazo[1,2-a]pyridine-6-carboxamide], for which, in the experiment with Pythium ultimum, the inhibition at 20 ppm is at least 80%. Also, the pest or weed control at 200 ppm in the experiment on Phytophthora infestans was at least 80%.

As to `CONC(=O)Nc1ccc(-c2cnc3ccc(C(=O)N(C)c4ccc(F)c(OC)c4)cn23)cn1` [Compound 99], the inhibition at 20 ppm with Pythium ultimum was at least 80%. Moreover, the pest or weed control at 200 ppm with Phytophthora infestans was at least 80%.

As for `COC(=O)Nc1ccc(-c2cnc3ccc(C(=O)N(C)c4cccc(F)c4)cn23)cn1` [Compound 52, methyl N-[5-[6-[(3-fluorophenyl)-methyl-carbamoyl]imidazo[1,2-a]pyridin-3-yl]-2-pyridyl]carbamate], the inhibition at 20 ppm in the experiment on Pythium ultimum was at least 80%. Also, the pest or weed control at 200 ppm with Phytophthora infestans was at least 80%.

For the compound `COC(=O)Nc1ccc(-c2cnc3ccc(C(=O)N(CC(C)C)c4ccccc4)cn23)cn1` [Compound 134, methyl N-[5-[6-[isobutyl(phenyl)carbamoyl]imidazo[1,2-a]pyridin-3-yl]-2-pyridyl]carbamate], the pest or weed control at 200 ppm in the experiment on Phytophthora infestans is at least 80%.

For the compound `COC(=O)Nc1ccc(-c2cnc3c(C4CC4)cc(C(=O)N(C)c4ccc(F)cc4)cn23)cn1` [Compound 83, methyl N-[5-[8-cyclopropyl-6-[(4-fluorophenyl)-methyl-carbamoyl]imidazo[1,2-a]pyridin-3-yl]-2-pyridyl]carbamate], the inhibition at 20 ppm in the experiment with Pythium ultimum was at least 80%. Moreover, the pest or weed control at 200 ppm in the experiment on Phytophthora infestans was at least 80%.

For the compound `CNC(=O)Nc1ccc(-c2cnc3ccc(C(=O)N(C)c4ccc(F)c(OC)c4)cn23)cc1` [Compound 80, N-(4-fluoro-3-methoxy-phenyl)-N-methyl-3-[4-(methylcarbamoyl-amino)phenyl]imidazo[1,2-a]pyridine-6-carboxamide], the inhibition at 20 ppm with Pythium ultimum is at least 80%. Further, in the experiment with Phytophthora infestans, the pest or weed control at 200 ppm is at least 80%.

As for `CCN(C(=O)c1ccc2ncc(-c3ccc(NC(=O)OC)nc3)n2c1)c1ccc(OC)c(OC)c1` [Compound 119, methyl N-[5-[6-[(3,4-dimethoxyphenyl)-ethyl-carbamoyl]imidazo[1,2-a]pyridin-3-yl]-2-pyridyl]carbamate], in the experiment with Phytophthora infestans, the pest or weed control at 200 ppm is at least 80%.

On to `CCOCCN(C(=O)c1ccc2ncc(-c3ccc(NC(=O)OC)nc3)n2c1)c1ccc(Cl)cc1` [Compound 123, methyl N-[5-[6-[(4-chlorophenyl)-(2-ethoxyethyl)carbamoyl]imidazo[1,2-a]pyridin-3-yl]-2-pyridyl]carbamate], for which the inhibition at 20 ppm in the experiment on Pythium ultimum was at least 80%. Also, the pest or weed control at 200 ppm in the experiment on Phytophthora infestans is at least 80%.

Take `COC(=O)Nc1ccc(-c2cnc3ccc(C(=O)N(CS(C)(=O)=O)c4ccc(F)c(OC)c4)cn23)cn1` [Compound 92, methyl N-[5-[6-[(4-fluoro-3-methoxy-phenyl)-(methylsulfonylmethyl)carbamoyl]imidazo[1,2-a]pyridin-3-yl]-2-pyridyl] carbamate]: the inhibition at 20 ppm with Pythium ultimum was at least 80%. Besides, in the experiment with Phytophthora infestans, the pest or weed control at 200 ppm is at least 80%.

In the case of `COC(=O)Nc1ccc(-c2cnc3ccc(C(=O)N(CCC#N)c4cccc(C)c4)cn23)cn1` [Compound 130, methyl N-[5-[6-[2-cyanoethyl(m-tolyl)carbamoyl]imidazo [1,2-a]pyridin-3-yl]-2-pyridyl]carbamate], the inhibition at 20 ppm in the experiment on Pythium ultimum was at least 80%. Further, the pest or weed control at 200 ppm in the experiment with Phytophthora infestans is at least 80%.

Turning to `CC(=O)Nc1ccc(-c2cnc3c(C)cc(C(=O)N(C)c4ccc(F)cc4)cn23)cn1` [Compound 168, 3-(6-acetamido-3-pyridyl)-N-(4-fluorophenyl)-N,8-dimethyl-imidazo[1,2-a]pyridine-6-carboxamide], the inhibition at 20 ppm in the experiment on Pythium ultimum is at least 80%. Besides, the pest or weed control at 200 ppm with Phytophthora infestans was at least 80%.

For the compound `COC(=O)Nc1ccc(-c2cnc3ccc(C(=O)N(c4ccc(F)cc4)C(C)C)cn23)cn1` [Compound 140, methyl N-[5-[6-[(4-fluorophenyl)-isopropyl-carbamoyl]imidazo[1,2-a]pyridin-3-yl]-2-pyridyl]carbamate], in the experiment on Pythium ultimum, the inhibition at 20 ppm was at least 80%. The pest or weed control at 200 ppm in the experiment with Phytophthora infestans was at least 80%.

Regarding `COC(=O)Nc1ccc(-c2cnc3ccc(C(=O)N(C)c4ccnc(F)c4)cn23)cn1` [Compound 71, methyl N-[5-[6-[(2-fluoro-4-pyridyl)-methyl-carbamoyl]imidazo[1,2-a]pyridin-3-yl]-2-pyridyl]carbamate], the inhibition at 20 ppm in the experiment on Pythium ultimum is at least 80%. For the same compound, the pest or weed control at 200 ppm in the experiment with Phytophthora infestans was at least 80%.

As for `CNC(=O)CN(C(=O)c1ccc2ncc(-c3ccc(NC(=O)OC)nc3)n2c1)c1ccc(F)c(OC)c1` [Compound 97, methyl N-[5-[6-[(4-fluoro-3-methoxy-phenyl)-[2-(methylamino)-2-oxo-ethyl]carbamoyl]imidazo[1,2-a]pyridin-3-yl]-2-pyridyl]carbamate], in the experiment with Pythium ultimum, the inhibition at 20 ppm is at least 80%. For the same compound, the pest or weed control at 200 ppm with Phytophthora infestans is at least 80%.

With `COC(=O)Nc1ccc(-c2cnc3ccc(C(=O)N(CCC#N)c4ccc(Cl)cc4)cn23)cn1` [Compound 128, methyl N-[5-[6-[(4-chlorophenyl)-(2-cyanoethyl)carbamoyl]imidazo[1,2-a]pyridin-3-yl]-2-pyridyl]carbamate], in the experiment on Pythium ultimum, the inhibition at 20 ppm is at least 80%. For the same compound, the pest or weed control at 200 ppm in the experiment on Phytophthora infestans was at least 80%.

In the case of `COC(=O)Nc1ccc(-c2cnc3ccc(C(=O)N(C)c4cncc(OC)c4)cn23)cn1` [Compound 55, methyl N-[5-[6-[(5-methoxy-3-pyridyl)-methyl-carbamoyl]imidazo[1,2-a]pyridin-3-yl]-2-pyridyl]carbamate], in the experiment with Pythium ultimum, the inhibition at 20 ppm was at least 80%. In addition, in the experiment with Phytophthora infestans, the pest or weed control at 200 ppm was at least 80%.

As to `COC(=O)Nc1ccc(-c2cnc3ccc(C(=O)N(CCC#N)c4ccc(F)cc4)cn23)cn1` [Compound 132, methyl N-[5-[6-[2-cyanoethyl-(4-fluorophenyl)carbamoyl]imidazo [1,2-a]pyridin-3-yl]-2-pyridyl]carbamate], the inhibition at 20 ppm in the experiment with Pythium ultimum was at least 80%. Also, in the experiment with Phytophthora infestans, the pest or weed control at 200 ppm was at least 80%.

`COC(=O)Nc1ccc(-c2cnc3ccc(C(=O)N(C)c4ccc(C(C)=O)cc4)cn23)cn1` [Compound 104, methyl N-[5-[6-[(4-acetylphenyl)-methyl-carbamoyl]imidazo[1,2-a]pyridin-3-yl]-2-pyridyl]carbamate]: the inhibition at 20 ppm in the experiment with Pythium ultimum is at least 80%.

Regarding `COC(=O)Nc1ccc(-c2cnc3cc(Br)c(C(=O)N(C)c4ccc(Cl)cc4)cn23)cc1` [Compound 34, methyl N-[4-[7-bromo-6-[(4-chlorophenyl)-methyl-carbamoyl]imidazo[1,2-a]pyridin-3-yl]phenyl]carbamate], in the experiment on Pythium ultimum, the inhibition at 20 ppm was at least 80%.

With `COC(=O)Nc1ccc(-c2cnc3ccc(C(=O)N(c4ccccc4)C4CC4)cn23)cn1` [Compound 147, methyl N-[5-[6-[cyclopropyl(phenyl)carbamoyl]imidazo [1,2-a]pyridin-3-yl]-2-pyridyl]carbamate], in the experiment with Pythium ultimum, the inhibition at 20 ppm is at least 80%.

As for `COC(=O)Nc1ccc(-c2cnc3ccc(C(=O)N(C)c4ccc(C)c(C)c4)cn23)cc1` [Compound 13, methyl N-[4-[6-[(3,4-dimethylphenyl)-methyl-carbamoyl]imidazo[1,2-a]pyridin-3-yl]phenyl]carbamate], the inhibition at 20 ppm in the experiment on Pythium ultimum was at least 80%.

As to `COC(=O)Nc1ccc(-c2cnc3ccc(C(=O)N(C)c4cccc(Cl)c4)cn23)cn1` [Compound 62, methyl N-[5-[6-[(3-chlorophenyl)-methyl-carbamoyl]imidazo[1,2-a]pyridin-3-yl]-2-pyridyl]carbamate], the inhibition at 20 ppm in the experiment with Pythium ultimum is at least 80%. Further, the pest or weed control at 200 ppm in the experiment with Phytophthora infestans is at least 80%.

As for `C#CCN(C(=O)c1ccc2ncc(-c3ccc(NC(=O)OC)cc3)n2c1)c1ccc(Cl)cc1` [Compound 33, methyl N-[4-[6-[(4-chlorophenyl)-prop-2-ynyl-carbamoyl]imidazo[1,2-a]pyridin-3-yl]phenyl]carbamate], the inhibition at 20 ppm with Pythium ultimum was at least 80%.

In the case of `CNC(=O)c1cccc(N(C)C(=O)c2ccc3ncc(-c4ccc(NC(=O)OC)nc4)n3c2)c1` [Compound 115, methyl N-[5-[6-[methyl-[3-(methylcarbamoyl)phenyl]carbamoyl]imidazo[1,2-a]pyridin-3-yl]-2-pyridyl]carbamate], in the experiment on Pythium ultimum, the inhibition at 20 ppm is at least 80%. In addition, the pest or weed control at 200 ppm with Phytophthora infestans was at least 80%.

With `CCc1cccc(N(C)C(=O)c2ccc3ncc(-c4ccc(NC(=O)OC)cc4)n3c2)c1` [Compound 10, methyl N-[4-[6-[(3-ethylphenyl)-methyl-carbamoyl]imidazo[1,2-a]pyridin-3-yl]phenyl]carbamate], the inhibition at 20 ppm with Pythium ultimum is at least 80%. Further, the pest or weed control at 200 ppm in the experiment on Phytophthora infestans is at least 80%.

Take `C#Cc1cccc(N(C)C(=O)c2ccc3ncc(-c4ccc(NC(=O)OC)nc4)n3c2)c1` [Compound 43, methyl N-[5-[6-[(3-ethynylphenyl)-methyl-carbamoyl]imidazo[1,2-a]pyridin-3-yl]-2-pyridyl]carbamate]: the inhibition at 20 ppm in the experiment with Pythium ultimum was at least 80%. Besides, in the experiment with Phytophthora infestans, the pest or weed control at 200 ppm was at least 80%.

On to `COC(=O)Nc1ccc(-c2cnc3ccc(C(=O)N(C)c4cccc(Br)c4)cn23)cn1` [Compound 69, methyl N-[5-[6-[(3-bromophenyl)-methyl-carbamoyl]imidazo[1,2-a]pyridin-3-yl]-2-pyridyl]carbamate], for which the inhibition at 20 ppm in the experiment with Pythium ultimum is at least 80%.
